The record followed here is patent publication US11408885B2, “Compositions and multiplex assays for characterizing active proteases and their inhibitors” (Massachusetts Institute of Technology, priority 2017, dated 2022).

The target in test [1] is MMP8 (Homo sapiens, UniProt P22894). The test can be described thus: FRET substrate cleavage by recombinant MMP, inhibition by activity-based probe. The following applies: FRET substrate PEPDAB008 10 μM, read-out: IC50, inhibition of substrate cleavage of active MMP. It counts as biochemical. An excerpt: (§1) The binding of an activity-based probe, e.g., HxBP-Bt, to the active site of an MMP (as shown in FIG. 1A) would effectively reduce (or inhibit) the ability of such MMP to cleave its substrate. […] This correlation should also provide an IC50 value to measure the sensitivity/potency of the MAMBI system to bind, and thereby quantify, active MMPs. […] Fluorescence resonance energy transfer (FRET) technique is used to determine if a substrate is cleaved by pre-labeling two parts of a substrate molecule with a donor chromophore and an acceptor chromophore, respectively, and measuring the energy transfer efficiency from the donor to the acceptor chromophore to determine if two fluorophores are within a certain distance of each other, i.e. the substrate is intact and uncleaved. Here, HxBP-Bt bound MMP samples were mixed with chromophore-labeled substrate peptides in 384-well OptiPlates® at 37° C. using timelapse fluorimetry in the Spectromax® M3 and M2e fluorimeters (Molecular Devices). The fluorescence was monitored by plate reader. In general, readings measured fluorescence every 20 minutes for roughly five hours and the reported rate of increase in fluorescence was calculated from fitting a linear portion of this increase including at least 4 data points and subtracting the average increase in background, protease-free conditions. […] Reaction velocities were calculated from linear reaction periods from raw fluorescence value time courses. […] Relative rates of FRET substrate cleavage among samples with the addition of HxBP-Bt were quantified and compared with the rates without HxBP-Bt. Activities of recombinant MMPs 1, 7, 8, 12 and 13, in the presence or absence of HxBP-Bt probe, were characterized with […]008 (Dabcyl-[…]); MMPs 2 and 9 with […]011 (Dabcyl-[…]) and MMPs 3 and 10 with […]052 (Dabcyl-[…]). […] These IC50 values were used to estimate binding off-rates in the computational model. IC50 of the inhibitor was calculated by fitting the resulting dose-dependent data with the PRISM software (GraphPad, USA)

Test [2] deals with MMP10 (Homo sapiens, UniProt P09238). Described as above. It counts as biochemical. As to conditions: FRET substrate PEPDAB052 10 μM, read-out: IC50, inhibition of substrate cleavage of active MMP.
From the text: as §1

The target of test [3] is MMP13 (Homo sapiens, UniProt P45452). The test is described as above. The class given is biochemical. The following applies: FRET substrate PEPDAB008 10 μM, read-out: IC50, inhibition of substrate cleavage of active MMP.
From the text: as §1

Test [4] concerns proteases in peritoneal fluid of control donors and endometriosis patients. The test can be described thus: FRET substrate cleavage in clarified peritoneal fluid. The class given is biochemical, human. The following applies: peritoneal fluids of six control donors and six endometriosis patients; 500 nM or 1500 nM HxBP-Bt. An excerpt: Clarified peritoneal fluid from patients with endometriosis was compared to that from a control population with regards to the active MMP compositions and quantities. Peritoneal fluid is a mixture of cell debris, leukocytes, and thousands of soluble proteins including over 100 proteases and protease inhibitors that is contained within the pelvic cavity and interacts with endometriotic lesions (Amon, et al, PLoS ONE, 5(6) (2010)).
All laparoscopy patients provided informed consent in accordance with a protocol approved by the Partners Human Research Committee and the Massachusetts Institute of Technology Committee on the Use of Humans as Experimental Subjects. Enrollment was limited to pre-menopausal women with regular cycles (26-32 days) and excluded individuals who had received hormonal treatment within three months of surgery. Moderate/Severe (Stage III/IV) endometriosis was diagnosed according to the revised criteria of the American Society for Reproductive Medicine 8. Peritoneal fluid was aspirated from the rectouterine pouch immediately following trocar insertion and prior to peritoneal lavage or surgical manipulation. Upon collection, specimens were immediately placed on wet ice and clarified within 15 min. by centrifugation for 10 min. at 1000 rcf. Clarified aspirates were transported to the laboratory on ice, aliquoted, and stored at −80° C. until analysis.

Test [5] deals with T1, MMP2 (Homo sapiens, UniProt P08253).
T1 sequence (P08253 110-660): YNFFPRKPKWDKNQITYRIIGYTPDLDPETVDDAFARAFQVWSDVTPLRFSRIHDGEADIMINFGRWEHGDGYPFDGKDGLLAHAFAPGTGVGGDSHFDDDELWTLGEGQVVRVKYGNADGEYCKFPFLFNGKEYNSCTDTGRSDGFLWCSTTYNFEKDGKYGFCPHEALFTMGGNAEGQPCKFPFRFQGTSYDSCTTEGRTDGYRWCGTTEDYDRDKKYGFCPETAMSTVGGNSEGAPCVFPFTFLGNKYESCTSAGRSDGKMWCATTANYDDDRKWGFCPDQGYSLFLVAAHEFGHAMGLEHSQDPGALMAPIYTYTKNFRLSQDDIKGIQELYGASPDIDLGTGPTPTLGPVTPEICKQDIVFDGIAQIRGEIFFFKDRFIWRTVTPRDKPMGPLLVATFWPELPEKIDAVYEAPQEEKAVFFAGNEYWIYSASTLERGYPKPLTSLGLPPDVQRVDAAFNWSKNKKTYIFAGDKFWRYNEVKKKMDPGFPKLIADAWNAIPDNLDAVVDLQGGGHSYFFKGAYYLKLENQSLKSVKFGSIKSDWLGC
Kind of test: FRET substrate cleavage by recombinant MMP, inhibition by activity-based probe. Set-up: purchased Peprotech. The class given is biochemical. As to conditions: FRET substrate PEPDAB011 10 μM, read-out: IC50, inhibition of substrate cleavage of active MMP.
From the text: as §1

The target of test [6] is T2, MMP1 (Homo sapiens, UniProt P03956).
T2 sequence (P03956 100-469): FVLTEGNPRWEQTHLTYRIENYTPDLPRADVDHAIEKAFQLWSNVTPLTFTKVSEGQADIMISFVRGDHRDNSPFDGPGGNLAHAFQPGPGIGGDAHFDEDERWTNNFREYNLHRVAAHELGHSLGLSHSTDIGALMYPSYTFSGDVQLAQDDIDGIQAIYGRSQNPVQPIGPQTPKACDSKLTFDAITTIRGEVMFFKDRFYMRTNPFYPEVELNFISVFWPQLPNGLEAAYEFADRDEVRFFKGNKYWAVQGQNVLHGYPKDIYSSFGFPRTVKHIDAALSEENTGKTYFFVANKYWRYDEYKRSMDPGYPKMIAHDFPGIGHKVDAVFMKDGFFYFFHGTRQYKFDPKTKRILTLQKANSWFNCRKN
The test is described as above. The following applies: FRET substrate PEPDAB008 10 μM, read-out: IC50, inhibition of substrate cleavage of active MMP. The class given is biochemical. Set-up: purchased Peprotech.
From the text: as §1

The target in test [7] is MMP3 (Homo sapiens, UniProt P08254). Described as above. The class given is biochemical. Set-up: purchased Peprotech. The following applies: FRET substrate PEPDAB052 10 μM, read-out: IC50, inhibition of substrate cleavage of active MMP.
From the text: as §1

Sequence of MMP3 (P08254 100-477): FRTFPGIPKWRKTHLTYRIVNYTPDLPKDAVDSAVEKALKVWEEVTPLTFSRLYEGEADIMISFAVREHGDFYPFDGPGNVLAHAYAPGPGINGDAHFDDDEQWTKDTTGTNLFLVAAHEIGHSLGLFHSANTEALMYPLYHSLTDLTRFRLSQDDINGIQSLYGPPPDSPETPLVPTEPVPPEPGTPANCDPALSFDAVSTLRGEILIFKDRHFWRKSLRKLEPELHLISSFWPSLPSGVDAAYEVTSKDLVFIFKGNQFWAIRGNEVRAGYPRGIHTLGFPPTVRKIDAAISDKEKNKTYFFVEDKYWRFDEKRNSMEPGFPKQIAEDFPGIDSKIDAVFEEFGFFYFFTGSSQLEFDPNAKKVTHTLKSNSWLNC
Sequence of MMP8 (P22894 101-467, species assumed): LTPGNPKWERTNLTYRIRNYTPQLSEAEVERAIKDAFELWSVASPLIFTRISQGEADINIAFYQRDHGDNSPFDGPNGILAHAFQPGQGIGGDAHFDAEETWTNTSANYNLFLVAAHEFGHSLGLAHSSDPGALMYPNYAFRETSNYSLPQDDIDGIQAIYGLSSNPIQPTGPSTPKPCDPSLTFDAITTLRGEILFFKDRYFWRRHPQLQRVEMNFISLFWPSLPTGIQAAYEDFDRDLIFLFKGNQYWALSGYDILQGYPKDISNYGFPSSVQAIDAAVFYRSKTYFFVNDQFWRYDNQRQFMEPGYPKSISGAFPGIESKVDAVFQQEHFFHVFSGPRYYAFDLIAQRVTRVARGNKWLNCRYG
Sequence of MMP10 (P09238 99-476): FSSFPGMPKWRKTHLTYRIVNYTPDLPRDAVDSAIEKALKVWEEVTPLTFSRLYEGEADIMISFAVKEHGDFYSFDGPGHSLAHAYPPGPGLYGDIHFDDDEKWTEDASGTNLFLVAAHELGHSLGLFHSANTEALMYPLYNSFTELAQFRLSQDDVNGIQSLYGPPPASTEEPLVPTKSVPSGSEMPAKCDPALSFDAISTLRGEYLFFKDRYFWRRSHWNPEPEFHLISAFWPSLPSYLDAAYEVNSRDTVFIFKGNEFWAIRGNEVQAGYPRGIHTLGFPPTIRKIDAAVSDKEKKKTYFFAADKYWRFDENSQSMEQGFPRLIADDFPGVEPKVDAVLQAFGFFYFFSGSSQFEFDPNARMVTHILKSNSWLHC

With `CC(C)CC(C(=O)NC(Cc1ccc(C(=O)c2ccccc2)cc1)C(=O)NCCOCCOCCOCC(=O)NCC(C)(C)SSC(C)(C)CNC(=O)CCCCC1SCC2NC(=O)NC21)C(O)C(=O)NO` (stereo not shown) [HxBP-Bt, biotin-tagged hydroxamate benzophenone (HxBP-Bt) probe], the concentration for half-maximal inhibition (IC50) (in general, the concentration needed to halve the response being measured) in test [1] turned out to be 2.4 nM; in test [2], 29 nM; in test [3] it was 2.3 nM; in test [5], 3.3 nM; in test [6], 2.1 nM; in test [7], 61 nM. Further, the “effect on substrate cleavage” value in test [4] was “inhibited substrate cleavage in all samples”.
